# According to patent US20260274832A1, “COMPOUNDS AND THEIR USE IN TREATING CANCER” (ASTRAZENECA AB, priority 2023, published 2026):
# Columns and labels:
# [1] = target: T1, AR (AR-full length) in LNCaP cells (Homo sapiens, UniProt P10275, T878A); experiment: LNCaP Androgen Receptor Imaging Assay (immunofluorescence of endogenous nuclear AR); type: cell-based; conditions: 24 h incubation; for DC50: concentration giving 50% of maximum degradation of AR per curve fit, single experiment or average of two or more; for Dmax: LNCaP
# T1 construct: the prostate cancer cell line LNCaP (expressing AR-full length); endogenous in cells; host or cells: LNCaP
# T1 sequence (P10275 whole entry T878A): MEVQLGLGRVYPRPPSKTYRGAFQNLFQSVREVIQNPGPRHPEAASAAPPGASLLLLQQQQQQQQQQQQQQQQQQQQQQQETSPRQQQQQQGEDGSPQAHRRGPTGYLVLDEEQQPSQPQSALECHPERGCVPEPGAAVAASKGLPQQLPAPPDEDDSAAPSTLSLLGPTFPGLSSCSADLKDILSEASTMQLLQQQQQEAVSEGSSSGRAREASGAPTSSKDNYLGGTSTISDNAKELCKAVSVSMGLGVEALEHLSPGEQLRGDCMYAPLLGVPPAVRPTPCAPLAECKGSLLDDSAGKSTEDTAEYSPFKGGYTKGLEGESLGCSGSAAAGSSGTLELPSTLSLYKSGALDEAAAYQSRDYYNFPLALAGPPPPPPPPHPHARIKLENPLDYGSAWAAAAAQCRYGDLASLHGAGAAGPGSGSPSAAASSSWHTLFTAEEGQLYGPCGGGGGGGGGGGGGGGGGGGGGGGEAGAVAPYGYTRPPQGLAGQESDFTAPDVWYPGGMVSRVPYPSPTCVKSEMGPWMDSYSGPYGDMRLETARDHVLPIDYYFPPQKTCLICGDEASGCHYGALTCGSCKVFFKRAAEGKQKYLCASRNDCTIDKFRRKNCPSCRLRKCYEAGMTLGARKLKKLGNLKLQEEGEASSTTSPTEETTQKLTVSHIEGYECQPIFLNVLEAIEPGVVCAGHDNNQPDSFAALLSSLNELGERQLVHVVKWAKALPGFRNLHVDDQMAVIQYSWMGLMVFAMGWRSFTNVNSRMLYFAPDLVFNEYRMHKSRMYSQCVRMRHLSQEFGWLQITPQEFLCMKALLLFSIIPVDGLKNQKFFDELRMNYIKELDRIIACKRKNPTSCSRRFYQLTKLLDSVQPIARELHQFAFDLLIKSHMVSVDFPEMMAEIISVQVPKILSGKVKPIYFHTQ
# T1 sequence (Q96SW2 whole entry partner): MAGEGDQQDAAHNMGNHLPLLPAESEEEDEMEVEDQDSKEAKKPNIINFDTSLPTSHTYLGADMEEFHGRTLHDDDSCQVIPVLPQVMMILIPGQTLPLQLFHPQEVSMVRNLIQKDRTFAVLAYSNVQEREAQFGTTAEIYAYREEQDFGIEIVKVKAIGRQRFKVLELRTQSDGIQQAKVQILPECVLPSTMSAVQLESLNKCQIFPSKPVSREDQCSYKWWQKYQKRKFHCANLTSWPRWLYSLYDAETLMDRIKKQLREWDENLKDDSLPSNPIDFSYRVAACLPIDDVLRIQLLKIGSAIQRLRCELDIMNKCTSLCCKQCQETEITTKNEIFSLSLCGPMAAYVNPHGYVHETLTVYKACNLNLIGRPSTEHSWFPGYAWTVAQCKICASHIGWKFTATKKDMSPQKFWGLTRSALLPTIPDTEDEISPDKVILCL
# Method: This cell-based imaging assay uses immuno-fluorescence to measure endogenous nuclear AR staining in the prostate cancer cell line LNCaP (expressing AR-full length). The purpose of the assay is to identify compounds that regulate AR protein level according to the protocol laid out in the steps below.
# (§1) All work was performed in a sterile tissue culture hood up to the point of cell fixation. LNCaP cells were cultured at 6-8×10^6 per T175 flask and split every 3-4 days. Medium: RPMI (R7638, VWR Sigma) containing 10% FCS and 1% glutamine. Cells were plated in black wall transparent bottom plates at a density of 12,000 cells (Cedex™ Cell counter, Beckmann & Coulter), 40 μL per well, using a Multidrop (ThermoFisher).
# (§2) Cells were dosed with test compound diluted in DMSO using an Echo 555/655™ (Labcyte) and the final concentration of DMSO in the well was 0.3%. A neutral control (DMSO) and a positive AR degrader control at 3 μM (a prior art AR PROTAC) were included. The Echo uses acoustic technology to perform direct microplate-to-microplate transfers of DMSO compound solutions to assay plates. The system can be programmed to transfer volumes as low as 2.5 nL in multiple increments between microplates and in so doing generates a serial dilution of compound in the assay plate which is then back-filled to normalise the DMSO concentration across the dilution range. Compounds were dispensed as a 12 point dose response with indicated concentrations. The plates were incubated at 37° C./5% CO2 for 24 h and then fixed and stained as below. 40 μL of 8% paraformaldehyde solution (v/v) in phosphate buffered saline (PBS) was added on top of the media already in the well using a Multidrop to fix plates giving a final concentration of 4% PFA (v/v) for 20-30 minutes (keep in fume hood to minimise PFA exposure). After 20-30 mins, the plates were washed with 3×PBS using a BioTek washer in a fume hood. A shake out of remaining volume in the well was performed to ensure best removal of remaining PBS. At this plates could be stored in PBS after washing for at least 3 days at 4° C., if so, PBS was removed by the BioTek before continuing with the next step.
# (§3) The cells were incubated with a Mouse monoclonal Anti-AR antibody AR441 (DAKO M3562) (1:1000), diluted in modified blocking buffer (PBS+1% BSA+0.1% TritonX); 15 μL/well for 2 h at RT. The plates were then washed with 3×PBS using a BioTek washer. A shake out of remaining volume in the well was performed to ensure best removal of remaining PBS. Cells were then incubated with Goat anti-mouse secondary antibody 488 (Invitrogen A11001) (1:500) and nuclear stain, DRAQ5 (Abcam Ab108410) (1:2000) diluted in modified blocking buffer for 45 mins at room temperature 15 μL/well. Plates are then washed with 3×PBS using a BioTek washer, without final aspiration, and sealed with black plate seals. Plates could be stored after staining for three days at 4° C. before read if required.
# (§4) Plates are read using a Cellomics Cellinsight to measure the Androgen Receptor level in each well. The data is exported into Genedata to perform curve fitting analysis. All data are normalized as % of positive control and the BellFit method automatically determines the correct fit method based on the presence of hook effect, choosing the BellFit when there is a hook and HillFit when there is no hook. Down-regulation of AR is expressed as a DC50 value and determined by calculation of the concentration of compound that is required to give 50% of maximum degradation of AR as per the curve fit for that compound. The maximum degradation observed for each compound is expressed as Dmax. The AR degradation data for compounds is shown in the table below and may be a result from a single experiment or an average of two or more experiments.
# [2] = target: T2, AR (L702H) in LNCaP cells (Homo sapiens, UniProt P10275, L702H/T878A); experiment: LNCaP Androgen Receptor L702H Imaging Assay (LNCaP cells engineered by CRISPR/Cas9); type: cell-based; conditions: LNCaP cells with AR L702H mutation, 24 h incubation; for DC50: concentration giving 50% of maximum degradation of AR (L702H) per curve fit; for Dmax: LNCaP
# T2 construct: engineered to introduce the mutation L702H into the AR gene using CRISPR/Cas9; endogenous in cells; host or cells: LNCaP cells edited by CRISPR/Cas9 at the AR gene
# T2 sequence (P10275 whole entry L702H/T878A): as the sequence (P10275 whole entry T878A) above, with L702H counted along it
# T2 sequence (Q96SW2 whole entry partner): as the sequence (Q96SW2 whole entry partner) above
# Method: as §1, §2, §3, §4
# At this stage, anti-androgen therapy is largely ineffective due to AR amplification, overexpression or point mutation. One of the point mutations observed in patient populations is L702H in the AR Ligand Binding Domain. LNCAP cells have been engineered to introduce the mutation L702H into the AR gene using CRISPR/Cas9. The previously described imaging-based AR assay will monitor nuclear AR (L702H) levels in these cells to identify compounds that regulate AR (L702H). […]
# [3] = maximum degradation observed, normalized as % of positive control (prior art AR PROTAC at 3 μM)
# [4] = maximum degradation observed, normalized as % of positive control
Structure (SMILES),DC50 [1] [nM],"Dmax [1, 3] [%]",DC50 [2] [nM],"Dmax [2, 4] [%]","LNCaP AR Degradation Dmax [1, 3] [%]","LNCaP AR (L702H) Degradation Dmax [2, 4] [%]"
"N#Cc1c[nH]c2c(C3CCCN(c4ccc(N5CCC(CN6CCN(c7ccc8c(c7)CN(C7CCC(=O)NC7=O)C8=O)CC6)CC5)cc4)C3)ccc(Cl)c12 (single isomer, unassigned) [Example 93, 4-Chloro-7-[(3R*)-1-{4-[4-({4-[2-(2,6-dioxopiperidin-3-yl)-1-oxo-2,3-dihydro-1H-isoindol-5-yl]piperazin-1-yl}methyl)piperidin-1-yl]phenyl}piperidin-3-yl]-1H-indole-3-carbonitrile]",20,87,11,95,,
"N#Cc1c[nH]c2c(C3CCCN(c4ccc(C5CCN(CC6CCN(c7ccc8c(c7)CN(C7CCC(=O)NC7=O)C8=O)CC6)CC5)cc4)C3)ccc(Cl)c12 (single isomer, unassigned) [Example 96, 4-Chloro-7-[(3R*)-1-{4-[1-({1-[2-(2,6-dioxopiperidin-3-yl)-1-oxo-2,3-dihydro-1H-isoindol-5-yl]piperidin-4-yl}methyl)piperidin-4-yl]phenyl}piperidin-3-yl]-1H-indole-3-carbonitrile]",31,54,12,95,,
"N#Cc1c[nH]c2c(C3CCCN(c4ccc(C5CCN(CC6CCN(c7ccc8c(c7)CN(C7CCC(=O)NC7=O)C8=O)CC6)CC5)cc4)C3)ccc(Cl)c12 (single isomer, unassigned) [Example 97, 4-Chloro-7-[(3S*)-1-{4-[1-({1-[2-(2,6-dioxopiperidin-3-yl)-1-oxo-2,3-dihydro-1H-isoindol-5-yl]piperidin-4-yl}methyl)piperidin-4-yl]phenyl}piperidin-3-yl]-1H-indole-3-carbonitrile]",> 3000,,> 3000,,,
"COc1nc(N2CCC(CN3CCC(c4ccc(N5CCCC(c6ccc(Cl)c7c(C#N)c[nH]c67)C5)cc4)CC3)CC2)cc2c1C(=O)N(C1CCC(=O)NC1=O)C2 (single isomer, unassigned) [Example 98, 4-Chloro-7-[(3R*)-1-{4-[1-({1-[2-(2,6-dioxopiperidin-3-yl)-4-methoxy-3-oxo-2,3-dihydro-1H-pyrrolo[3,4-c]pyridin-6-yl]piperidin-4-yl}methyl)piperidin-4-yl]phenyl}piperidin-3-yl]-1H-indole-3-carbonitrile]",90,40,15,83,,
"N#Cc1c[nH]c2c(N3CCCC(c4ccc(N5CCC(CN6CCC(n7ccc8c(N9CCC(=O)NC9=O)cccc87)CC6)CC5)nc4)C3)ccc(Cl)c12 (single isomer, unassigned) [Example 115, 4-Chloro-7-[(3S*)-3-{6-[4-({4-[4-(2,4-dioxo-1,3-diazinan-1-yl)-1H-indol-1-yl]piperidin-1-yl}methyl)piperidin-1-yl]pyridin-3-yl}piperidin-1-yl]-1H-indole-3-carbonitrile]",14,99,13,102,,
"N#Cc1c[nH]c2c(N3CCCC(c4ccc(N5CCC(CN6CCC(n7ccc8c(N9CCC(=O)NC9=O)cccc87)CC6)CC5)nc4)C3)ccc(Cl)c12 (single isomer, unassigned) [Example 116, 4-Chloro-7-[(3R*)-3-{6-[4-({4-[4-(2,4-dioxo-1,3-diazinan-1-yl)-1H-indol-1-yl]piperidin-1-yl}methyl)piperidin-1-yl]pyridin-3-yl}piperidin-1-yl]-1H-indole-3-carbonitrile]",11,,23,,103,97
"N#Cc1c[nH]c2c(N3CCOC(c4ccc(N5CCC(CN6CCC(n7ccc8c(N9CCC(=O)NC9=O)cccc87)CC6)CC5)cc4)C3)ccc(Cl)c12 (single isomer, unassigned) [Example 117, 4-Chloro-7-[(2S*)-2-{4-[4-({4-[4-(2,4-dioxo-1,3-diazinan-1-yl)-1H-indol-1-yl]piperidin-1-yl}methyl)piperidin-1-yl]phenyl}morpholin-4-yl]-1H-indole-3-carbonitrile]",17,89,363,84,,
